HELM strings list units from the 5' end as sugar, base in round brackets, then linkage (d deoxyribose, r ribose, m 2'-O-methyl, p phosphodiester). Strings are as the collection lists them; they lack the last nucleoside at the 3' end of the tested compound. [moe] = 2'-O-(2-methoxyethyl) (MOE); [sp] = phosphorothioate linkage; [m5C] = 5-methylcytosine
Target: GFAP
Test: mouse, dose not given
Details: ASO

Row | Substance | 3 h FOB score [score 0-7]
1 | RNA1{[moe](G)[sp].[moe](T)p.[moe](G)p.[moe](A)p.[moe](G)[sp].d(G)[sp].d([m5C])[sp].d(T)[sp].d(T)[sp].d(T)[sp].d(T)[sp].d(G)[sp].d(A)[sp].d(G)[sp].d(A)[sp].[moe](T)p.[moe](A)p.[moe](T)[sp].[moe]([m5C])}$$$$ (last 3' nucleoside missing) | 5
2 | RNA1{[moe](G)[sp].[moe](T)p.[moe](G)p.[moe](A)p.[moe](G)[sp].d(T)[sp].d(T)[sp].d(T)[sp].d([m5C])[sp].d(T)[sp].d(T)[sp].d(G)[sp].d(T)[sp].d(T)[sp].d(A)[sp].[moe](G)p.[moe](T)p.[moe](T)[sp].[moe](G)}$$$$ (last 3' nucleoside missing) | 7
3 | RNA1{[moe](G)[sp].[moe](T)p.[moe](G)p.[moe](A)p.[moe](T)[sp].d(T)[sp].d(T)[sp].d(T)[sp].d([m5C])[sp].d([m5C])[sp].d([m5C])[sp].d([m5C])[sp].d(G)[sp].[moe](T)p.[moe]([m5C])p.[moe](T)[sp].[moe](T)}$$$$ (last 3' nucleoside missing) | 0
4 | RNA1{[moe](G)[sp].[moe](T)p.[moe](G)p.[moe](A)p.[moe](T)[sp].d(T)[sp].d(T)[sp].d(T)[sp].d([m5C])[sp].d([m5C])[sp].d([m5C])[sp].d([m5C])[sp].d(G)[sp].d(T)[sp].d([m5C])[sp].[moe](T)p.[moe](T)p.[moe](T)[sp].[moe](G)}$$$$ (last 3' nucleoside missing) | 6
5 | RNA1{[moe](G)[sp].[moe](T)p.[moe](G)p.[moe](A)p.[moe]([m5C])[sp].d(T)[sp].d(A)[sp].d(T)[sp].d([m5C])[sp].d(T)[sp].d(A)[sp].d(G)[sp].d(G)[sp].d(A)[sp].d(T)[sp].[moe](T)p.[moe](T)p.[moe](G)[sp].[moe](G)}$$$$ (last 3' nucleoside missing) | 6
6 | RNA1{[moe](G)[sp].[moe](T)p.[moe](G)p.[moe](A)p.d([m5C])[sp].d(T)[sp].d(A)[sp].d(T)[sp].d([m5C])[sp].d(T)[sp].d(A)[sp].d(G)[sp].d(G)[sp].d(A)[sp].[moe](T)p.[moe](T)p.[moe](T)p.[moe](G)[sp].[moe](G)}$$$$ (last 3' nucleoside missing) | 3
7 | RNA1{[moe](G)[sp].[moe](T)p.[moe](G)p.[moe](G)p.[moe](A)[sp].d(G)[sp].d(G)[sp].d(G)[sp].d([m5C])[sp].d(G)[sp].d(A)[sp].d(T)[sp].d(G)[sp].d(T)[sp].d(A)[sp].[moe](G)p.[moe](T)p.[moe](A)[sp].[moe](G)}$$$$ (last 3' nucleoside missing) | 7
8 | RNA1{[moe](G)[sp].[moe](T)p.[moe](G)p.[moe](G)p.[moe](T)p.d([m5C])[sp].d([m5C])[sp].d(T)[sp].d(A)[sp].d(A)[sp].d(A)[sp].d(T)[sp].d(A)[sp].d(T)[sp].d(T)[sp].[moe]([m5C])p.[moe](T)p.[moe](A)[sp].[moe](G)}$$$$ (last 3' nucleoside missing) | 1
9 | RNA1{[moe](G)[sp].[moe](T)p.[moe](G)p.[moe](T)p.[moe](A)[sp].d(T)[sp].d(T)[sp].d(A)[sp].d(G)[sp].d(G)[sp].d(A)[sp].d(T)[sp].d([m5C])[sp].[moe]([m5C])p.[moe]([m5C])p.[moe](A)[sp].[moe](T)}$$$$ (last 3' nucleoside missing) | 4
10 | RNA1{[moe](G)[sp].[moe](T)p.[moe](G)p.[moe](T)p.[moe](A)[sp].d(T)[sp].d(T)[sp].d(A)[sp].d(G)[sp].d(G)[sp].d(A)[sp].d(T)[sp].d([m5C])[sp].d([m5C])[sp].d([m5C])[sp].[moe](A)p.[moe](T)p.[moe]([m5C])[sp].[moe](T)}$$$$ (last 3' nucleoside missing) | 4
11 | RNA1{[moe](G)[sp].[moe](T)p.[moe](G)p.[moe](T)p.[moe](A)p.[moe](T)p.d(T)[sp].d(A)[sp].d(G)[sp].d(G)[sp].d(A)[sp].d(T)[sp].d([m5C])[sp].d([m5C])[sp].d([m5C])[sp].d(A)[sp].[moe](T)p.[moe]([m5C])[sp].[moe](T)}$$$$ (last 3' nucleoside missing) | 4
12 | RNA1{[moe](G)[sp].[moe](T)p.[moe](G)p.[moe](T)p.[moe](A)p.d(T)[sp].d(T)[sp].d(A)[sp].d(G)[sp].d(G)[sp].d(A)[sp].d(T)[sp].d([m5C])[sp].d([m5C])[sp].d([m5C])[sp].[moe](A)p.[moe](T)p.[moe]([m5C])[sp].[moe](T)}$$$$ (last 3' nucleoside missing) | 2
13 | RNA1{[moe](G)[sp].[moe](T)p.[moe](G)p.[moe](T)p.[moe](G)[sp].d(T)[sp].d(A)[sp].d(T)[sp].d(T)[sp].d(A)[sp].d(G)[sp].d(G)[sp].d(A)[sp].[moe](T)p.[moe]([m5C])p.[moe]([m5C])[sp].[moe]([m5C])}$$$$ (last 3' nucleoside missing) | 3
14 | RNA1{[moe](G)[sp].[moe](T)p.[moe](G)p.[moe](T)p.[moe](G)[sp].d(T)[sp].d(A)[sp].d(T)[sp].d(T)[sp].d(A)[sp].d(G)[sp].d(G)[sp].d(A)[sp].d(T)[sp].d([m5C])[sp].[moe]([m5C])p.[moe]([m5C])p.[moe](A)[sp].[moe](T)}$$$$ (last 3' nucleoside missing) | 6
15 | RNA1{[moe](G)[sp].[moe](T)p.[moe](G)p.[moe](T)p.[moe](G)p.[moe](T)p.d(A)[sp].d(T)[sp].d(T)[sp].d(A)[sp].d(G)[sp].d(G)[sp].d(A)[sp].d(T)[sp].d([m5C])[sp].d([m5C])[sp].[moe]([m5C])p.[moe](A)[sp].[moe](T)}$$$$ (last 3' nucleoside missing) | 4
16 | RNA1{[moe](G)[sp].[moe](T)p.[moe](G)p.[moe](T)p.d(A)[sp].d(T)[sp].d(T)[sp].d(A)[sp].d(G)[sp].d(G)[sp].d(A)[sp].d(T)[sp].d([m5C])[sp].d([m5C])[sp].[moe]([m5C])p.[moe](A)p.[moe](T)p.[moe]([m5C])[sp].[moe](T)}$$$$ (last 3' nucleoside missing) | 3
17 | RNA1{[moe](G)[sp].[moe](T)p.[moe](G)p.[moe]([m5C])p.[moe](T)[sp].d(G)[sp].d(A)[sp].d(G)[sp].d(A)[sp].d(A)[sp].d(T)[sp].d([m5C])[sp].d(A)[sp].d(A)[sp].d(G)[sp].[moe]([m5C])p.[moe](T)p.[moe]([m5C])[sp].[moe]([m5C])}$$$$ (last 3' nucleoside missing) | 0
18 | RNA1{[moe](G)[sp].[moe](T)p.[moe](G)p.[moe]([m5C])p.[moe](T)[sp].d(G)[sp].d([m5C])[sp].d(T)[sp].d(G)[sp].d([m5C])[sp].d([m5C])[sp].d(A)[sp].d(G)[sp].d(A)[sp].d(G)[sp].[moe](T)p.[moe]([m5C])p.[moe]([m5C])[sp].[moe](T)}$$$$ (last 3' nucleoside missing) | 6
19 | RNA1{[moe](G)[sp].[moe](T)p.[moe](G)p.[moe]([m5C])p.[moe](T)[sp].d(T)[sp].d(T)[sp].d(A)[sp].d(G)[sp].d(T)[sp].d(G)[sp].d(A)[sp].d([m5C])[sp].d([m5C])[sp].d(T)[sp].[moe](G)p.[moe](T)p.[moe](G)[sp].[moe](A)}$$$$ (last 3' nucleoside missing) | 5
20 | RNA1{[moe](G)[sp].[moe](T)p.[moe](G)p.[moe]([m5C])p.[moe](T)[sp].d(T)[sp].d(T)[sp].d(T)[sp].d([m5C])[sp].d(T)[sp].d(G)[sp].d([m5C])[sp].d([m5C])[sp].d(T)[sp].d([m5C])[sp].[moe]([m5C])p.[moe](A)p.[moe](G)[sp].[moe](G)}$$$$ (last 3' nucleoside missing) | 2
21 | RNA1{[moe](G)[sp].[moe](T)p.[moe](G)p.[moe]([m5C])p.[moe](T)p.[moe](T)p.d(T)[sp].d(T)[sp].d(G)[sp].d([m5C])[sp].d([m5C])[sp].d([m5C])[sp].d([m5C])[sp].d([m5C])[sp].d(T)[sp].d(G)[sp].[moe](T)p.[moe](A)[sp].[moe](G)}$$$$ (last 3' nucleoside missing) | 3
22 | RNA1{[moe](G)[sp].[moe](T)p.[moe](G)p.[moe]([m5C])p.[moe]([m5C])[sp].d([m5C])[sp].d([m5C])[sp].d([m5C])[sp].d([m5C])[sp].d(G)[sp].d([m5C])[sp].d([m5C])[sp].d([m5C])[sp].d(T)[sp].d([m5C])[sp].[moe]([m5C])p.[moe](T)p.[moe]([m5C])[sp].[moe]([m5C])}$$$$ (last 3' nucleoside missing) | 2
23 | RNA1{[moe](G)[sp].[moe](T)p.[moe](G)p.[moe]([m5C])p.d(T)[sp].d(T)[sp].d(T)[sp].d(T)[sp].d(G)[sp].d([m5C])[sp].d([m5C])[sp].d([m5C])[sp].d([m5C])[sp].d([m5C])[sp].[moe](T)p.[moe](G)p.[moe](T)p.[moe](A)[sp].[moe](G)}$$$$ (last 3' nucleoside missing) | 3
24 | RNA1{[moe](G)[sp].[moe](T)p.[moe](T)p.[moe](T)p.[moe]([m5C])[sp].d(T)[sp].d(T)[sp].d(G)[sp].d(T)[sp].d(T)[sp].d(A)[sp].d(G)[sp].d(T)[sp].d(T)[sp].d(G)[sp].[moe](G)p.[moe](A)p.[moe](G)[sp].[moe](T)}$$$$ (last 3' nucleoside missing) | 7
25 | RNA1{[moe](G)[sp].[moe](T)p.[moe](T)p.[moe](T)p.[moe]([m5C])[sp].d([m5C])[sp].d(T)[sp].d(T)[sp].d(T)[sp].d(T)[sp].d(A)[sp].d([m5C])[sp].d([m5C])[sp].d(A)[sp].d(A)[sp].[moe](G)p.[moe]([m5C])p.[moe](T)[sp].[moe](G)}$$$$ (last 3' nucleoside missing) | 4
26 | RNA1{[moe](G)[sp].[moe](T)p.[moe]([m5C])p.[moe](A)p.[moe](G)[sp].d([m5C])[sp].d([m5C])[sp].d(T)[sp].d(G)[sp].d(G)[sp].d(T)[sp].d(T)[sp].d(A)[sp].[moe](G)p.[moe]([m5C])p.[moe]([m5C])[sp].[moe](T)}$$$$ (last 3' nucleoside missing) | 1

Source: the OligoGym collection
